Values quoted from earlier work as cited in US6455086B1, “Microorganism reduction methods and compositions for food cleaning” (The Procter & Gamble Company, priority 1999, dated 2002).
Structures can show the parent of a compound that is named as a salt.

What was measured:
[1] = tested on: typical Gram negative and positive bacteria, fungi and yeasts; settings: used at a level from about 0.001% to about 0.5% by weight of the usage composition

solubility in water | Compound | effectiveness against typical Gram negative and positive bacteria, fungi and yeasts [1]
 | Cn1sc2c(c1=O)CCC2 [Promexal, 2-methyl-4,5-trimethylene4-isothiazolin-3-one] | effective
 | O=c1[nH]sc2ccccc12 [Proxel, 1,2-benzisothiazolin-3-one] | effective
about 1.8% | [H]/N=C(\N/C(=N/[H])NCCCCCCNC(=N)NC(=N)Nc1ccc(Cl)cc1)Nc1ccc(Cl)cc1 [chlorhexidine diacetate salt, 1,1′-hexamethylene bis(5-(p-chlorophenyl)biguanide)] | 
about 70% | [H]/N=C(\N/C(=N/[H])NCCCCCCNC(=N)NC(=N)Nc1ccc(Cl)cc1)Nc1ccc(Cl)cc1 [chlorhexidine digluconate salt, 1,1′-hexamethylene bis(5-(p-chlorophenyl)biguanide)] | 
